system: TCF4/β-catenin transcription (TOPFlash) in SW480 cells; test: Reporter gene assay (TOPFlash luciferase); format: cell-based; details: Homo sapiens, SW480, Table 4; Reporter gene assay as described in Example 6; read-out: IC50
Description: SW480 cells were transfected with the usage of Superfect™ transfect reagent (Qiagen, 301307). Cells were trypsinized briefly 1 day before transfection and plated on 6 well plate (5×10^5 cells/well) so that they were 50-80% confluent on the day of transfection.
Four microgram (TOPFlash) and one microgram (pRL-null) of DNAs were diluted in 150 μl of serum-free medium, and 30 μl of Superfect™ transfect reagent was added. The DNA-Superfect mixture was incubated at room temperature for 15 min, and then, 1 ml of 10% FBS DMEM was added to this complex for an additional 3 hours of incubation. While complexes were forming, cells were washed with PBS twice without antibiotics.
The DNA-Superfect™ transfect reagent complexes were applied to the cells before incubating at 37° C. at 5% CO2 for 3 hours. After incubation, recovery medium with 10% FBS was added to bring the final volume to 1.18 ml. After 3 hours incubation, the cells were harvested and reseeded to 96 well plate (3×10^4 cells/well). After overnight incubation at 37° C. at 5% CO2, the cells were treated with Compound A for 24 hours. Finally, the activity was checked by means of luciferase assay (Promega, E1960).

Row | SMILES | IC50 [nM]
1 | CCCN1CC(=O)N2[C@@H](Cc3ccc(O)cc3)C(=O)N(Cc3ccc(Cl)c(N(C)C)c3)C[C@@H]2N1C(=O)NCc1ccccc1 [Compound 126] | 10300 ± 1500
2 | C=CCN1CC(=O)N2[C@@H](Cc3ccc(O)cc3)C(=O)N(Cc3cccc(N4CCOCC4)c3)C[C@@H]2N1C(=O)NCc1ccccc1 [Compound 127] | 1800 ± 200
3 | C=CCN1CC(=O)N2[C@@H](Cc3ccc(O)cc3)C(=O)N(Cc3cccc4cccnc34)C[C@@H]2N1C(=O)NCc1ccccc1 [Compound 128] | 400 ± 100
4 | C=CCN1CC(=O)N2[C@@H](Cc3ccc(O)cc3)C(=O)N(Cc3ccc(Cl)c(N(C)C)c3)C[C@@H]2N1C(=O)NCc1ccccc1 [Compound 129] | 2400 ± 500
5 | CN1CC(=O)N2[C@@H](Cc3ccc(O)cc3)C(=O)N(Cc3cccc(OCCN4CCOCC4)c3)C[C@@H]2N1C(=O)NCc1ccccc1 [Compound 130] | 6100 ± 400
6 | C#CCN1CC(=O)N2[C@@H](Cc3ccc(O)cc3)C(=O)N(Cc3cccc(OCCN4CCOCC4)c3)C[C@@H]2N1C(=O)NCc1ccccc1 [Compound 131] | 2200 ± 300
7 | C=CCN1CC(=O)N2[C@@H](Cc3ccc(O)cc3)C(=O)N(Cc3cccc(OCCN4CCOCC4)c3)C[C@@H]2N1C(=O)NCc1ccccc1 [Compound 132] | 2300 ± 500
8 | C=CCN1CC(=O)N2[C@@H](Cc3ccc(O)cc3)C(=O)N(Cc3ccc(C)c(N4CCOCC4)c3)C[C@@H]2N1C(=O)NCc1ccccc1 [Compound 133] | 3500 ± 700
9 | C#CCN1CC(=O)N2[C@@H](Cc3ccc(O)cc3)C(=O)N(Cc3ccc(C)c(N4CCOCC4)c3)C[C@@H]2N1C(=O)NCc1ccccc1 [Compound 134] | 4500 ± 900
10 | C#CCN1CC(=O)N2[C@@H](Cc3ccc(O)cc3)C(=O)N(Cc3ccc4c(c3)OCCO4)C[C@@H]2N1C(=O)NCc1ccccc1 [Compound 135] | 2400 ± 700
11 | C=CCN1CC(=O)N2[C@@H](Cc3ccc(O)cc3)C(=O)N(Cc3ccc4[nH]nnc4c3)C[C@@H]2N1C(=O)NCc1ccccc1 [Compound 136] | 28000 ± 2900
12 | C=CCN1CC(=O)N2[C@@H](Cc3ccc(O)cc3)C(=O)N(Cc3ccc(Cl)c4cccnc34)C[C@@H]2N1C(=O)NCc1ccccc1 [Compound 137] | 600 ± 100
13 | C#CCN1CC(=O)N2[C@@H](Cc3ccc(O)cc3)C(=O)N(Cc3ccc(Cl)c4cccnc34)C[C@@H]2N1C(=O)NCc1ccccc1 [Compound 138] | 1000 ± 200
14 | C=CCN1CC(=O)N2[C@@H](Cc3ccc(O)cc3)C(=O)N(Cc3ccc(Cl)c(N4CCOCC4)c3)C[C@@H]2N1C(=O)NCc1ccccc1 [Compound 139] | 1100 ± 100
15 | C#CCN1CC(=O)N2[C@@H](Cc3ccc(O)cc3)C(=O)N(Cc3ccc(Cl)c(N4CCOCC4)c3)C[C@@H]2N1C(=O)NCc1ccccc1 [Compound 140] | 2700 ± 300
16 | C#CCN1CC(=O)N2[C@@H](Cc3ccc(O)cc3)C(=O)N(Cc3ccc4ncsc4c3)C[C@@H]2N1C(=O)NCc1ccccc1 [Compound 141] | 1800 ± 300
17 | C=CCN1CC(=O)N2[C@@H](Cc3ccc(O)cc3)C(=O)N(Cc3ccc4ncsc4c3)C[C@@H]2N1C(=O)NCc1ccccc1 [Compound 142] | 1600 ± 400
18 | C=CCN1CC(=O)N2[C@@H](Cc3ccc(O)cc3)C(=O)N(Cc3ccc(F)cc3F)C[C@@H]2N1C(=O)NCc1ccccc1 [Compound 143] | 1300 ± 200
19 | C#CCN1CC(=O)N2[C@@H](Cc3ccc(O)cc3)C(=O)N(Cc3ccc(F)cc3F)C[C@@H]2N1C(=O)NCc1ccccc1 [Compound 144] | 2100 ± 200
20 | C=CCN1CC(=O)N2[C@@H](Cc3ccc(O)cc3)C(=O)N(Cc3cccc4c3N(C)CCO4)C[C@@H]2N1C(=O)NCc1ccccc1 [Compound 145] | 300 ± 40
21 | C#CCN1CC(=O)N2[C@@H](Cc3ccc(O)cc3)C(=O)N(Cc3ccc4c(c3)OCCN4C)C[C@@H]2N1C(=O)NCc1ccccc1 [Compound 146] | 16700 ± 1400

Row | SMILES | IC50 [nM]
22 | C=CCN1CC(=O)N2[C@@H](Cc3ccc(O)cc3)C(=O)N(Cc3ccc4c(c3)OCCN4C)C[C@@H]2N1C(=O)NCc1ccccc1 [Compound 147] | 9400 ± 1000
23 | CCCN1CC(=O)N2[C@@H](Cc3ccc(O)cc3)C(=O)N(Cc3ccc(Cl)c4cccnc34)C[C@@H]2N1C(=O)NCc1ccccc1 [Compound 148] | 2600 ± 300
24 | C=C(C)CN1CC(=O)N2[C@@H](Cc3ccc(O)cc3)C(=O)N(Cc3ccc(Cl)c4cccnc34)C[C@@H]2N1C(=O)NCc1ccccc1 [Compound 149] | 31000 ± 6400
25 | CN1CC(=O)N2[C@@H](Cc3ccc(O)cc3)C(=O)N(Cc3cccc(N4CCCC4=O)c3)C[C@@H]2N1C(=O)NCc1ccccc1 [Compound 150] | 12700 ± 700
26 | C=CCN1CC(=O)N2[C@@H](Cc3ccc(O)cc3)C(=O)N(Cc3cccc(N4CCCC4=O)c3)C[C@@H]2N1C(=O)NCc1ccccc1 [Compound 152] | 1200 ± 300
27 | C=CCN1CC(=O)N2[C@@H](Cc3ccc(O)cc3)C(=O)N(Cc3cccc(N4CCCC4)c3)C[C@@H]2N1C(=O)NCc1ccccc1 [Compound 154] | 3200 ± 400
28 | CCCN1CC(=O)N2[C@@H](Cc3ccc(O)cc3)C(=O)N(Cc3cc(N(C)C(C)C)cc(C(F)(F)F)c3)C[C@@H]2N1C(=O)NCc1ccccc1 [Compound 155] | 30500 ± 4100
29 | C=CCN1CC(=O)N2[C@@H](Cc3ccc(O)cc3)C(=O)N(Cc3cc(N(C)C(C)C)cc(C(F)(F)F)c3)C[C@@H]2N1C(=O)NCc1ccccc1 [Compound 156] | 13300 ± 1600
30 | CCCN1CC(=O)N2[C@@H](Cc3ccc(O)cc3)C(=O)N(Cc3ccc(F)cc3F)C[C@@H]2N1C(=O)NCc1ccccc1 [Compound 157] | 4200 ± 100
31 | C=CCN1CC(=O)N2[C@@H](Cc3ccc(O)cc3)C(=O)N(Cc3cccc4c3OCCN4C)C[C@@H]2N1C(=O)NCc1ccccc1 [Compound 158] | 900 ± 20
32 | C=CCN1CC(=O)N2[C@@H](Cc3ccc(NC=O)cc3)C(=O)N(Cc3ccc(F)cc3F)C[C@@H]2N1C(=O)NCc1ccccc1 [Compound 159] | 2700 ± 200
33 | CCCN1CC(=O)N2[C@@H](Cc3ccc(NC=O)cc3)C(=O)N(Cc3ccc(F)cc3F)C[C@@H]2N1C(=O)NCc1ccccc1 [Compound 160] | 10600 ± 500
34 | C=CCN1CC(=O)N2[C@@H](Cc3ccc(OP(=O)(O)O)cc3)C(=O)N(Cc3ccc(Cl)c(N(C)C)c3)C[C@@H]2N1C(=O)NCc1ccccc1 [Compound 161] | 1800 ± 200
35 | C=CCN1CC(=O)N2[C@@H](Cc3ccc(O)cc3)C(=O)N(Cc3cc(F)c(F)cc3N(C)C)C[C@@H]2N1C(=O)NCc1ccccc1 [Compound 162] | 1800 ± 600
36 | C=CCN1CC(=O)N2[C@@H](Cc3ccc(OP(=O)(O)O)cc3)C(=O)N(Cc3cc(F)c(F)cc3N(C)C)C[C@@H]2N1C(=O)NCc1ccccc1 [Compound 163] | 1700 ± 500
37 | C=CCN1CC(=O)N2[C@@H](Cc3ccc(O)cc3)C(=O)N(Cc3ccccc3)C[C@@H]2N1C(=O)NCc1ccccc1 [Compound 164] | 1100 ± 200
38 | [2H]C([2H])(c1ccc(O)cc1)[C@H]1C(=O)N(Cc2cccc3ccccc23)C[C@H]2N1C(=O)CN(C)N2C(=O)NCc1ccccc1 [Compound 165] | 3900 ± 300
39 | [2H]c1cc(C[C@H]2C(=O)N(Cc3cccc4ccccc34)C[C@H]3N2C(=O)CN(C)N3C(=O)NCc2ccccc2)cc([2H])c1O [Compound 166] | 3300 ± 200
40 | C=CCN1CC(=O)N2[C@@H](Cc3ccc(O)cc3)C(=O)N(Cc3cc(C)cc4c3N(C)CCO4)C[C@@H]2N1C(=O)NCc1ccccc1 [Compound 167] | 1300 ± 100
41 | CCCN1CC(=O)N2[C@@H](Cc3ccc(O)cc3)C(=O)N(Cc3ccccc3)C[C@@H]2N1C(=O)NCc1ccccc1 [Compound 168] | 3500 ± 300
42 | C=CCN1CC(=O)N2C(Cc3ccc(O)cc3)C(=O)N(Cc3ccc(F)cc3F)CC2N1C(=O)NCc1ccccc1 (stereo not drawn) [Compound 170] | 1500 ± 500
